Laboratory results reported in patent publication US20070026478A1, “Hemiasterlin affinity probes and their uses” (WYETH, priority 2002, published 2007).
Marks after values point to notes of the source that are not given here.

Key:
bovine brain tubulin [1] = biological target: T1, bovine brain tubulin (Bos taurus, UniProt P81947+Q6B856); experiment: Radiolabeled Probe 1 binding by centrifugal gel filtration; settings: 0.5 μM tubulin, 0.005-5 μM radiolabeled Probe 1, room temperature; read-out: apparent KD, radiolabeled probe technique
T1 construct: MAP-rich bovine brain tubulin (99% purity), Hela cell tubulin (90% purity); purchased Cytoskeleton (Denver, Colo.); host or cells: bovine brain
Experimental: Binding of Probe 1 to bovine brain tubulin was also assessed by incubating 0.5 μM tubulin with 0.005-5 μM radiolabeled Probe 1 both in the presence and in the absence of 5 μM non-radiolabeled probe 1 as a competitor. Incubations were performed for 30 minutes at room temperature in PEM buffer. Binding was measured using centrifugal gel filtration on Sephadex G-50 (Microspin G-50) as described (Bai et al., Cancer Res. 1996, 56:4398-4406). Spin columns (Amersham Biosciences, Piscataway, N.J.) were centrifugated for 1 minute at 2000 rpm in a microcentrifuge immediately prior to use, and samples applied in 50 μL total volume, followed by a 2 minute centrifugation at the same speed. The amount of probe 1 bound to tubulin was quantitated by measuring the radioactivity within aliquots collected after centrifugation. The KD value, representing 50% of specific binding, was calculated from the curve generated by subtracting the amount of […].

KB cells = experiment: Cell proliferation assay in tissue culture (SRB); type: cell-based; settings: Homo sapiens, KB, 72 h
Experimental: Cell proliferation studies were performed according to procedures described by Loganzo et al. (Cancer Res. 2003, 63:1838-1845). Briefly, KB cells were plated in 96-well plates in 100 μL media at densities pre-determined to produce 60-90% confluence at the time of analysis. Compounds, which were serially diluted into media as 2× stocks, were added to cells in duplicate. After 72 hours of incubation, cell survival was assayed by the SRB assay as described (Rabindran et al., C. Cancer Res. 1998, 58:5850-5858). IC50 values (i.e. the concentration of drug needed to inhibit cell growth by 50%) were used to evaluate drug potency.

bovine MAP-rich tubulin = biological target: T2, bovine MAP-rich tubulin (Bos taurus, UniProt P81947+Q6B856); experiment: Tubulin polymerization assay in a cell-free system; type: biochemical; settings: 0.3 μM compound
T2 construct: MAP-rich bovine brain tubulin (99% purity), Hela cell tubulin (90% purity); purchased Cytoskeleton (Denver, Colo.); host or cells: bovine brain
Experimental: In vitro tubulin polymerization assays were performed according to procedures that have been described elsewhere (Loganzo et al., Cancer Res. 2003, 63:1838-1845). Briefly, bovine MAP-rich tubulin (final concentration 1.5 mg/mL) was dissolved in cold PEM buffer containing 1 mM GTP (GPEM) and centrifuged at 12,000×g for 10 minutes at 4° C. The tubulin solution (100 μL/well) was added rapidly to wells of a low-volume, 96-well plate already containing duplicate aliquots (10 μL) of test compounds in GPEM. Final compound concentrations were 0.3 μM. Control wells contained the same final concentration of DMSO (0.3%). After initiation of the reaction, absorbance at 340 nm was measured every minute for 60 minutes at 24° C. using a SpectraMax Plus plate reader (Molecular Devices, Sunnyvale, Calif.). An increase in absorbance over time indicated an increase in turbidity resulting from tubulin polymerization.

[2] = biological target: T3, tubulin in KB-3-1 cell lysates (Homo sapiens, UniProt P07437+P68363); experiment: Probe 1 photolabeling in KB-3-1 cell lysates; type: binding; settings: 250 μM non-radiolabeled, 2.5 μM [3H]-probe 1, KB-3-1 cell lysates (50 μg)
T3 construct: a cytosolic preparation of KB-3-1 cell lysates (50 μg) or KB-3-1 cells (40,000 cells) were used in the place of purified tubulin; endogenous in cells; host or cells: KB-3-1 cells (cytosolic supernatant at 100,000 x g, or whole cells)
Experimental: FIG. 1B illustrates the labeling of KB-3-1 cell lysates (50 μg) (lanes 1 and 2) and purified bovine brain (BB) tubulin (5 μg) (lanes 3 and 4) incubated for 30 minutes at room temperature with 2.5 μM [^3H]-probe 1. Samples in lanes 1 and 3 were pre-incubated with 250 μM non-radiolabeled probe 1 prior to incubation with radiolabeled materials. Samples were analyzed as described in FIG. 1A. Lanes marked “M” are molecular weight markers in kDa.
(§1) Alternatively, a cytosolic preparation of KB-3-1 cell lysates (50 μg) or KB-3-1 cells (40,000 cells) were used in the place of purified tubulin above. The supernatant of mechanically disrupted cells centrifuged at 100,000×g was used as a cytosolic preparation. K-3-1 cells were prepared by growing KB-3-1 cells in a 96-well plate and rinsing them with serum free medium. For experiments with whole cells, 250 μM HTI-286 was used as the competitor molecule during pre-incubation at 37° C. for 15 minutes.

bovine brain tubulin [3] = biological target: T1, bovine brain tubulin; experiment: Competition of [3H]-Probe 1 photolabeling of tubulin; type: binding; settings: for inhibition of tubulin labeling by non-radiolabeled probe: 100 μM non-radiolabeled; for Probe 1 photolabeling of tubulin (% of no-competitor control): control (no competitor) = 100
Experimental: as §1, with “medium.” for “medium. For experiments with whole cells, 250 μM HTI-286 was used as the competitor molecule during pre-incubation at 37° C. for 15 minutes.”
If whole cells were used, Laemmli sample buffer was then added to lyse the cells.
Low grade SDS (Sigma, catalog No. L5750) was used in the running buffer, when needed, to allow separation of α and β-tubulin subunits. Gels were fixed, stained with Coomassie blue from BioRad (Hercules, Calif.) to ensure equal loading of protein, and sliced. […] Alternatively, gels were incubated with EN^3HANCE according to the manufacturer's instructions (Life Sciences Products, Inc.), washed, and dried prior to exposure of the gel to Biomax MX film from Kodak (Rochester, N.Y.) for fluorography.
After incubation for 30 minutes at 37° C., samples were irradiated with 360 nm UV light for 30 minutes and separated by SDS-PAGE. Gels were exposed to film using fluorographic techniques.
In particular, photolabeling experiments were performed as described in section 7.1.5 above, at both room temperature and at 37° C.

Question: `CN[C@H](C(=O)N[C@H](C(=O)N(C)[C@H](/C=C(\C)C(=O)O)C(C)C)C(C)(C)C)C(C)(C)c1ccc(C(=O)c2ccccc2)cc1` [Probe 1, 4-benzoyl-N,β,β-trimethyl-L-phenylalanyl-N^1-[(1S,2E)-3-carboxy-1-isopropylbut-2-enyl]-N^1,3-dimethyl-L-valinamide] was tested. Which Kd (bovine brain tubulin [1]) did it give?
Answer: Its Kd is 350 nM.

Question: And the IC50 (KB cells)?
Answer: Its IC50 is 1.8 nM.

Question: And the inhibition at 0.3 µM (bovine MAP-rich tubulin)?
Answer: Its inhibition at 0.3 µM is 88%.

Question: What about the “inhibition of radiolabeled Probe 1 binding in cell lysates” value [2] of the same compound?
Answer: The value was “can inhibit the binding of radiolabled Probe 1”.

Question: And the “inhibition of tubulin labeling by non-radiolabeled probe” value (bovine brain tubulin [3]; tubulin: radiolabeled probe 1 of 2.5:0.25 (10:1))?
Answer: Its value is 93%.

Question: And the “inhibition of tubulin labeling by non-radiolabeled probe” value (bovine brain tubulin [3]; tubulin: radiolabeled probe 1 of 2.5:2.5 (1:1))?
Answer: The value was 82%.

Question: What about the “reduction of Probe 1 photolabeling of tubulin” value (bovine brain tubulin [3]; 37° C.) of the same compound?
Answer: Its value is “about 75%”.

Question: And the “Probe 1 photolabeling of tubulin (% of no-competitor control)” value (bovine brain tubulin [3]; 37° C., 100 μM competitor)?
Answer: The value was 24^† %.

Question: And the “Probe 1 photolabeling of tubulin (% of no-competitor control)” value (bovine brain tubulin [3]; Room Temp., 2.5 μM tubulin, 0.25 μM radiolabeled Probe 1, 100 μM competitor)?
Answer: The value was 12 ± 7.8%.

Question: And the IC50 (bovine brain tubulin [3]; room temperature, 2.5 μM tubulin, 0.25 μM radiolabeled Probe 1, read-out: IC50 for inhibition of Probe 1 photolabeling of tubulin)?
Answer: The IC50 was 5000 nM.

Question: And the “reduction of Probe 1 photolabeling of tubulin” value (bovine brain tubulin [3]; room temperature, 400-fold molar excess (100 μM) competitor, 2.5 μM tubulin, 0.25 μM radiolabeled Probe 1)?
Answer: The value was “approximately 87%”.
